According to patent publication US11572475B2, “Carbocyanines for G-quadruplex DNA stabilization and telomerase inhibition” (GEORGIA STATE UNIVERSITY RESEARCH FOUNDATION, INC., priority 2011, dated 2023):

Columns and labels:
[1] = test system: Human Telomere (HT) quadruplex DNA; test: Thermal melting UV-Vis absorbance, quadruplex DNA; type: binding; conditions: for Change in Thermal Melting Points, Human Telomere (HT), 1:1: ratio 1:1 (R); for Change in Thermal Melting Points, Human Telomere (HT), 2:1: ratio 2:1 (R); for Change in Thermal Melting Points, Human Telomere (HT), 4:1: ratio 4:1 (R); for Change in Thermal Melting Points, Human Telomere (HT), 6:1: ratio 6:1 (R); for Selectivity for quadruplex over duplex DNA by thermal melting: quadruplex vs duplex
Description: (§1) Three DNA sequences were used: Human Telomere (HTelo), c-myc, and Duplex (Integrated DNA Technologies, San Diego, Calif.). The sequences are shown below:
The concentration of each DNA sample mixed with MilliQ water was determined by UV-Vis at 260 nm using their extinction coefficients. Quadruplexes from Human Telomere (Tel22) and c-myc were prepared by heating the corresponding oligonucleotides at 90° C. for 5 minutes in a 10 mM Tris/50 mM KCl buffer at pH 7.5 and then cooling to room temperature (to favor the intramolecular folding).
(§2) The buffer used was 10 mM Tris base (Fischer Scientific, Fairlawn, N.J.), 50 mM Potassium Chloride (Fischer Scientific, Fairlawn, N.J.), with the pH adjusted to 7.5 with Hydrochloric Acid (Fischer Scientific, Fairlawn, N.J.).
(§3) DNA folding and unfolding (melting) can be measured using absorbance at a constant wavelength of 260 nm for duplex DNA and 295 nm for quadruplex DNA while the temperature is increased, for example from 25° C. to 95° C. At these wavelengths, the resulting curves decrease in absorbance for quadruplex and increase for duplex DNA. Buffer solution and presence of DNA-binding compounds alter the Tm melting temperature, or midpoint between fully folded and unfolded. An increase in melting temperature in the presence of DNA-binding compounds indicates a stabilizing effect of the compound on the DNA structure.
(§4) The selectivity of a given cyanine for quadruplex DNA can be evaluated using thermal melting. The number in parentheses next to the compound number corresponds to the compound number in Schemes 1 and 2.
(§5) Thermal melting studies were also performed on compounds T4 and T5 (Scheme 2) and ZK-14 and SP-2-36.

HeLa cells = test: Trypan blue exclusion assay for cell viability, HeLa; type: cell-based; conditions: for Hela cells killed: after 24 h
Description: (§6) To evaluate the cytotoxic properties of the cyanines described herein, trypan blue exclusion assay for cell viability was performed on 10 compounds at two different concentrations (5 μM and 20 μM). To test the cancer selectivity of the dyes, the results were compared in a cancer cell line, HeLa and a non-cancerous cell line, HDF. The loss of membrane integrity in dead and dying cells allows preferential uptake of labels like trypan blue. At the end of the incubation times with the dyes, HeLa or HDF cells were pelleted and washed with PBS. Well-suspended cells were mixed with equal volume of 0.4% trypan blue in 1×PBS, pH 7.4, followed by incubation at room temperature for 5 min. Cells were examined under the microscope and blue-stained cells were considered non-viable.

[2] = Trypan blue exclusion assay for cell viability, HDF; type: cell-based; conditions: human, HDF cells (non-cancerous cell line); at the lower dose (5 μM); read-out: cell viability of normal cells (HDF)
Description: as §6

A2T2 = test: Isothermal calorimetry, A2T2; type: binding; conditions: 25° C.
Description: (§7) DNA binding is dependent on enthalpy and entropy, components of the Gibbs free energy. Isothermal calorimetry measures the heat absorbed (endothermic binding) or released (exothermic binding) in binding at the μcalorie level. By examining the thermodynamics of different compounds, compounds can be analyzed to determine what factors favor quadruplex over duplex DNA binding. Enthalpy and binding constants are determined from measuring the heat change when compound is injected into a DNA solution, and the equations ΔG=ΔH−TΔS ΔG=−RT ln K are used to calculate entropy and Gibbs free energy.
(§8) Solutions of compound (0.2 mM) were injected 30 times into solutions of DNA (0.02 mM) on a VPC-ITC. All solutions were degasses at 25° C. for 15 minutes. TRIS/K^+ buffer was used in the reference cell. The injections were monitored at 25° C. with a reference power of 1 μcal/sec, an initial delay of 300 sec, and a stirring speed of 290. The first injection was 2 μL for 4 sec, with a spacing of 300 sec, and a filter period of 1 sec. The remaining 29 injections were 10 μL volume for a duration of 20 sec, with a spacing of 300 sec, and a filter period of 1 sec. The data was analyzed by VPViewer 2000 software.
(§9) Isothermal calorimetry (ITC) experiments were performed to test the SPR and fluorescence preference in binding c-myc over hTelo. […]

Duplex DNA = test: Thermal melting UV-Vis absorbance, duplex DNA; type: binding; conditions: for Change in Thermal Melting Points, Duplex, 1:1: ratio 1:1 (R); for Change in Thermal Melting Points, Duplex, 2:1: ratio 2:1 (R); for Change in Thermal Melting Points, Duplex, 4:1: ratio 4:1 (R); for Change in Thermal Melting Points, Duplex, 6:1: ratio 6:1 (R)
Description: as §1, §2, §3, §4, §5

[3] = test system: Human Telomere (HT) quadruplex DNA; test: Fluorescence titration with human telomere quadruplex; type: binding; conditions: fluorescence intensity of bound ligand divided by that of free ligand
From the text: (§10) Atoms absorb energy and can emit it as heat (vibrational relaxation), fast light emission (fluorescence), or slow light emission (phosphorescence). Most of the cyanines described herein fluoresce in response to near-infrared wavelengths of light absorption. As the cyanines bind to DNA, π-π stacking and hydrogen bonding is altered leading to a change in fluorescence emission. This change can be measured in direct correlation to DNA binding. In some cases an approximate binding constant can be determined from measuring fluorescence enhancement as DNA is titrated into a solution of fluorescent compound. Fluorescent enhancement, or the maximum emission divided by the minimum emission of the titration (compound saturated with DNA divided by free compound) at a fixed wavelength is useful to compare DNA affinity between a family of compounds.
(§11) A UV-Vis absorbance scan is first conducted to acquire the excitation wavelength. A 5 μM solution of compound in 1 mL, of Tris/K+ buffer is scanned from 800 nm to 200 nm at a rate of 60 nm/min with a 5 nm slit width. All DNAs are diluted in Tris/K+ buffer. The human telomere and c-Myc DNA are annealed into a quadruplex motif by heating at 95° C. in the presence of potassium ions in a hot water bath for approximately five minutes, then allowing the solution to slowly come to room temperature. In a fluorescence cell, an emission scan of 1 μM of compound in 1 mL of Tris Buffer is taken (Varian Cary Eclipse, Walnut Creek, Calif.) with appropriate parameters based on the excitation wavelength, an excitation slit width of 5 nm, and an emission slit width of 5 nm. Then 0.05 μM of DNA is titrated into the solution and scanned under the same conditions after each addition. The solution is titrated to saturation, at which the change in fluorescence intensity is nearly zero.
(§12) Due to the highly stabilized parallel quadruplex structure of c-Myc, thermal melting could not be considered for this sequence. Thus, fluorescence can be used to measure binding affinity towards the two quadruplex structures. […] Fluorescence enhancement, or the fluorescence intensity of the bound ligand divided by that of the free ligand, was considered in evaluating binding.

c-Myc quadruplex DNA = test: Fluorescence titration with c-Myc quadruplex; type: binding; conditions: fluorescence intensity of bound ligand divided by that of free ligand
From the text: as §10, §11, §12

HDF cells = test: Trypan blue exclusion assay for cell viability, HDF; type: cell-based; conditions: at both concentrations; text also says lower concentrations (5-10 μM)
Description: as §6

hTelo = test: Isothermal calorimetry, hTelo; type: binding, human; conditions: 25° C.
Description: as §7, §8, §9

c-myc = test: Isothermal calorimetry, c-myc; type: binding; conditions: ITC, 25° C.
Description: as §7, §8, §9

SMILES | Change in Thermal Melting Points, Human Telomere (HT), 1:1 [1] | Change in Thermal Melting Points, Human Telomere (HT), 2:1 [1] | Change in Thermal Melting Points, Human Telomere (HT), 4:1 [1] | Change in Thermal Melting Points, Human Telomere (HT), 6:1 [1] | Hela cells killed (HeLa cells; 5 μM) [%] | Hela cells killed (HeLa cells; 20 μM) [%] | viability at 5 µM [2] [%] | ITC binding to A2T2 (A2T2) | Change in Thermal Melting Points, Duplex, 1:1 (Duplex DNA) | Change in Thermal Melting Points, Duplex, 2:1 (Duplex DNA) | Change in Thermal Melting Points, Duplex, 4:1 (Duplex DNA) | Change in Thermal Melting Points, Duplex, 6:1 (Duplex DNA) | Fluorescence Enhancement, HT [3] | Selectivity for quadruplex over duplex DNA by thermal melting [1] | Fluorescence Enhancement, c-Myc (c-Myc quadruplex DNA) | cell death, HDFs (HDF cells) [%] | K (M^−1), hTelo (hTelo; ITC) [M⁻¹] | K (M^−1), c-myc (c-myc) [M⁻¹] | Cytotoxicity to cancer cells (HeLa cells; HeLa, both concentrations studied (5 μM and 20 μM)) | ITC binding to hTelo (hTelo)
CC1(C)C(/C=C/C(Br)=C/C=C2/N(CCC[N+](C)(C)C)c3ccc(I)cc3C2(C)C)=[N+](CCC[N+](C)(C)C)c2ccc(I)cc21 [A-161 (50)] | 4.1 | 9.2 | 16.2 | 21.7 | > 70 | > 70 | 100 | – | – | – | – | – | – | – | – | – | – | – | – | –
CC1(C)C(/C=C/C(Br)=C/C=C2\N(CCC[N+](C)(C)C)c3ccccc3C2(C)C)=[N+](CCC[N+](C)(C)C)c2ccccc21 [A-C8 (43)] | 2.0 | 4.6 | 11.6 | 15.6 | – | – | – | No binding | 0.0 | −1.1 | 0.9 | −0.2 | 1.66 | selectively bind to quadruplex DNA with little or no binding to duplex DNA | 3.46 | ~35 | 55700 | 802000 | – | –
CC1(C)C(/C=C/C=C2/N(CCC[N+](C)(C)C)c3ccc(Br)cc3C2(C)C)=[N+](CCC[N+](C)(C)C)c2ccc(Br)cc21 [MH5 (28)] | 1 | 5.2 | 14.2 | 23.7 | – | – | – | No binding | −0.1 | −1.0 | −1.0 | −0.1 | 1.6 | selectively bind to quadruplex DNA with little or no binding to duplex DNA | 4.65 | – | – | 1.19e+06 | highly cytotoxic to cancer cells | Weak binding- unable to fit
